A short description of this data set: Human intestinal absorption in po dosed human. The settings on record: in vivo.

`CN1C(C(=O)Nc2ccccn2)=C(O)c2ccccc2S1(=O)=O` [PIROXICAM] had a Fa of 100%. Compound `CCc1[nH]c(=O)[nH]c1C(=O)c1ccncc1` [PIROXIMONE] gave a Fa of 80%. Then `CC[C@H](C)C(=O)O[C@H]1C[C@H](O)C=C2C=C[C@H](C)[C@H](CC[C@@H](O)C[C@@H](O)CC(=O)O)[C@H]21` [PRAVASTATIN], with 34%; and `O=C(C1CCCCC1)N1CC(=O)N2CCc3ccccc3C2C1` (centres undefined) [PRAZIQUANTEL], with 100%.

The compound `COc1cc2nc(N3CCN(C(=O)c4ccco4)CC3)nc(N)c2cc1OC` [PRAZOSIN] yielded a Fa of 86%.

Compound `C[C@]12C=CC(=O)C=C1CC[C@@H]1[C@@H]2[C@@H](O)C[C@@]2(C)[C@H]1CC[C@]2(O)C(=O)CO` [PREDNISOLONE] showed a Fa of 99%. `CCCOC(C(=O)OC1CCN(C)CC1)(c1ccccc1)c1ccccc1` [PROPIVERINE]: the Fa was determined as 84%. Then `CCCc1cc(=O)[nH]c(=S)[nH]1` [PROPYLTHIOURACIL], with 76%; and `C=C[C@H]1C[N@@]2CC[C@H]1C[C@@H]2[C@@H](O)c1ccnc2ccc(OC)cc12` [QUINIDINE], with 81%; and `Cn1c(=O)c2c(ncn2CCCNCC(O)c2cc(O)cc(O)c2)n(C)c1=O` (centres undefined) [REPROTEROL], with 60%. Then `NC(=O)c1ncn([C@@H]2O[C@H](CO)[C@@H](O)[C@H]2O)n1` [RIBAVIRIN], with 33%; and `Oc1ccc(C(O)C2CCCCN2)cc1O` (centres undefined) [RIMITEROL], with 48%; and `O=C1NS(=O)(=O)c2ccccc21` [SACCHARIN], with 88%.

The compound `O=C(O)c1ccccc1O` [SALICYLIC ACID] registered a Fa of 100%. Then `O=c1[nH]c(=O)n([C@@H]2O[C@H](CO)[C@@H](O)[C@@H]2O)cc1/C=C/Br` [SORIVUDINE], with 82%; and `CC(C)NCC(O)c1ccc(NS(C)(=O)=O)cc1` (centres undefined) [SOTALOL], with 95%; and `CC(=O)S[C@@H]1CC2=CC(=O)CC[C@]2(C)[C@H]2CC[C@@]3(C)[C@@H](CC[C@@]34CCC(=O)O4)[C@H]12` [SPIRONOLACTONE], with 73%. In turn, `Cc1cn([C@H]2C=C[C@@H](CO)O2)c(=O)[nH]c1=O` [STAVUDINE] returned a Fa of 100%. Compound `CN1C(C(=O)Nc2nccs2)=C(O)c2ccccc2S1(=O)=O` [SUDOXICAM] registered a Fa of 100%. Then `O=C(O)c1cc(/N=N/c2ccc(S(=O)(=O)Nc3ccccn3)cc2)ccc1O` [SULFASALAZINE], with 59%; and `CCN1CCCC1CNC(=O)c1cc(S(N)(=O)=O)ccc1OC` (centres undefined) [SULPIRIDE], with 44%. `CCN1CCCC1CNC(=O)c1cc(S(=O)(=O)CC)ccc1OC` (centres undefined) [SULTOPRIDE]: the Fa is 89%. As to `NC(=O)N1C(=O)/C(=C(\O)c2cccs2)c2cc(Cl)ccc21` [TENIDAP], the Fa worked out at 89%. Then `CN1C(C(=O)Nc2ccccn2)=C(O)c2sccc2S1(=O)=O` [TENOXICAM], with 100%; and `COc1cc2nc(N3CCN(C(=O)C4CCCO4)CC3)nc(N)c2cc1OC` (centres undefined) [TERAZOSIN], with 90%; and `CC(C)(C)NCC(O)c1cc(O)cc(O)c1` (centres undefined) [TERBUTALINE], with 62%.

`C[C@]12CC[C@H]3[C@@H](CCC4=CC(=O)CC[C@@]43C)[C@@H]1CC[C@@H]2O` [TESTOSTERONE] gave a Fa of 100%. As for `Cn1c(=O)c2[nH]cnc2n(C)c1=O.O` [THEOPHYLLINE], the Fa stood at 100%. Then `Cc1ccsc1C(=CCCN1CCC[C@@H](C(=O)O)C1)c1sccc1C` [TIAGABINE], with 90%; and `CC(C)(C)NC[C@H](O)COc1nsnc1N1CCOCC1` [TIMOLOL], with 95%; and `COc1cc(C)c([S+](C)[O-])cc1OC` (centres undefined) [TOLMESOXIDE], with 98%.

`CC1(C)O[C@@H]2[C@@H](CO[C@@]3(COS(N)(=O)=O)OC(C)(C)O[C@@H]23)O1` [TOPIRAMATE] yielded a Fa of 86%. Then `CN(C)CCOc1ccc(/C(=C(/CCCl)c2ccccc2)c2ccccc2)cc1` [TOREMIFENE], with 100%; and `Cc1cccc(Nc2ccncc2S(=O)(=O)NC(=O)NC(C)C)c1` [TORSEMIDE], with 96%. `COc1cccc(C2(O)CCCCC2CN(C)C)c1` (centres undefined) [TRAMADOL] yielded a Fa of 90%.

As to `COc1cc(Cc2cnc(N)nc2N)cc(OC)c1OC` [TRIMETHOPRIM], the Fa came to 97%. Then `N[C@@H]1[C@H]2CN(c3nc4c(cc3F)c(=O)c(C(=O)O)cn4-c3ccc(F)cc3F)C[C@@H]12` [TROVAFLOXACIN], with 88%; and `CCCC(CCC)C(=O)[O-].[Na+]` [VALPROATE SODIUM], with 100%. For `COc1ccc(C(CN(C)C)C2(O)CCCCC2)cc1` (centres undefined) [VENLAFAXINE], the Fa stood at 97%. For `C=CC(N)CCC(=O)O` (centres undefined) [VIGABATRIN], the Fa is 58%. Then `CCOc1ccccc1OCC1CNCCO1` (centres undefined) [VILOXAZINE], with 98%; and `CC(C(=O)O)c1ccc(C2CCCC(=NO)C2)cc1` (centres undefined) [XIMOPROFEN], with 98%. `Cc1cn([C@H]2C[C@H](N=[N+]=[N-])[C@@H](CO)O2)c(=O)[nH]c1=O` [ZIDOVUDINE] yielded a Fa of 100%. `O=C1Cc2cc(CCN3CCN(c4nsc5ccccc45)CC3)c(Cl)cc2N1` [ZIPRASIDONE] displayed a Fa of 60%.

(Values after ChEMBL document CHEMBL1157012, “Neural computational prediction of oral drug absorption based on CODES 2D descriptors” (Eur J Med Chem, 2010).)
